Test system: OP9 cells
Test: Test of myricetin promoting osteocalcin secretion
Assay type: cell-based, Murine
Details: 0.03125 mg/mL in differentiation culture medium, 7 days; blank group taken as 100%; ELISA of supernatant
Text: Experimental cell line: Murine bone marrow stromal cells (hereinafter referred to as OP9 cells) were used, and the OP9 cells were purchased from OP9 cell lines (ATCC CRL-2749™) from the American Type Culture Collection (ATCC®). Cell culture medium: It included […] (Minimum Essential Medium Alpha Medium, purchased from Gibco, product number: Cat. 12000-022), 20% of Fetal Bovine Serum (purchased from Gibco, Cat. 10437-028), and 1% of Penicillin-streptomycin (purchased from Gibco, Cat. 15240-062). Differentiation culture medium: It included 90% of DMEM (Dulbecco's modified Eagle's medium, purchased from Gibco, Cat. 12100-038) added with additional ingredients to make it include 10% of FBS (fetal bovine Serum, purchased from Gibco, 10438-026) and 1% of penicillin-streptomycin (purchased from Gibco, Cat. 15140122), 50 μM of ascorbic acid (purchased from Sigma), 10^−7 M of dexamethasome (purchased from Sigma), and 10 mM of β-glycerol (purchased from Sigma). ELISA Kit for Osteocalcin (OC): Brand: USCN; model: SEA471Mu. Flow cytometer: Purchased from BD Pharmingen Company, model: BDTM Accuri C6 Plus. […] The content of osteocalcin in the supernatant to be detected in each well was measured by the […] to promote osteocalcin secretion analysis. […]

O=c1c(O)c(-c2cc(O)c(O)c(O)c2)oc2cc(O)cc(O)c12 [myricetin]
relative osteocalcin secretion: 121.39%

— patent publication US20240261354A1, “METHODS FOR IMPROVING BONE QUALITY AND PROMOTING CARTILAGE DIFFERENTIATION BY CHRYSOPHYLLUM CAINITO EXTRACT AND MANUFACTURING METHOD THEREOF” (TCI CO., LTD., priority 2023, published 2024)
